# Experimental data: patent US20250313563A1, “GLYCOGEN SYNTHASE KINASE 3 INHIBITORS AND USES THEREOF” (The Broad Institute, Inc., priority 2022, published 2025)
# Like-named read-outs stand apart in the source and are kept apart here.
# Columns and labels:
# [1] = biological target: GSK3α (GST-full length GSK3α) (Homo sapiens (Human), UniProt P49840); assay: GSK3α TR-FRET kinase assay; format: biochemical
# Protocol: (§1) TR-FRET Assay: The assay was performed in a white, 384 well, low volume, flat bottom plate (Grenier). After a 30 minute preincubation in assay buffer with the indicated concentration of compound, the kinase activity was initiated by the addition of the substrates. 1 nM GSK3α (GST-full length GSK3α [SignalChem G08-10G]) or 1 nM GSK3b (GST-full length GSK3b: [SignalChem G08-9G]) were then incubated at ambient temperature for 100 minutes in 10 μL of 50 mM Tris, pH 7.5, 20 mM MgCl2, 0.05 mM DTT, 100 μg/mL BSA and 1% DMSO, with 200 nM biotinylated peptide substrate (biotinylated and S645 phosphorylated glycogen synthase 631-650) and either 4 μM ATP (GSK3α, Table 16) or 2 μM ATP (GSK3b, Table 16) or 1 mM ATP (Table 17). The kinase activity was quenched with 2 μL of 250 mM EDTA. A 10 μL volume of 40 nM Strepavidin-d2, 2 nM Tb^2+-pSer641 antibody in TR-FRET Detection Buffer (Invitrogen) was then added. After 60 min at room temperature the plate was read on Envision plate reader using Ex: 340 nm, Em: 615 nm and […]. The normalized 665/615 Signal ratio versus log compound concentration was analyzed by XLFIT to yield IC50 values.
# [2] = biological target: GSK3b (GST-full length GSK3b) (Homo sapiens (Human), UniProt P49841); assay: GSK3b TR-FRET kinase assay; format: biochemical
# GSK3b (GST-full length GSK3b), sequence (P49841 whole entry): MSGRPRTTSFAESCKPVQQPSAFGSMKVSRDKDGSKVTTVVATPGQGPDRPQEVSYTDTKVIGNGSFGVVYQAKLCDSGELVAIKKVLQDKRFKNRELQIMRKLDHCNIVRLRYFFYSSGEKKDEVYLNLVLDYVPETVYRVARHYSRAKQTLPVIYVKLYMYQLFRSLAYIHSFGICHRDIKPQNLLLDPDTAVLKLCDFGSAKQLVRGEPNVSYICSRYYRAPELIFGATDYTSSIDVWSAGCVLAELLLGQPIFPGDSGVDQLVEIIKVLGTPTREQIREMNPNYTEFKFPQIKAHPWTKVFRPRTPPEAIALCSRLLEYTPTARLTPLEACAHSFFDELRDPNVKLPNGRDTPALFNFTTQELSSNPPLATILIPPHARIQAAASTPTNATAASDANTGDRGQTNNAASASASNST
# Protocol: as §1
# [3] = 1 nM GSK3α, 4 μM ATP, 30 minute preincubation, geometric mean, read-out: GSK3-A TR-FRET BIOCHEMICAL (TR-FRET), GMean, IC50
# [4] = 1 nM GSK3b, 2 μM ATP, 30 minute preincubation, geometric mean, read-out: GSK3-B TR-FRET BIOCHEMICAL (TR-FRET), GMean, IC50
# [5] = 1 nM GSK3α, 4 μM ATP, 30 minute preincubation, Table 16, read-out: GSK3-A TR-FRET BIOCHEMICAL (TR-FRET), IC50
# [6] = 1 nM GSK3b, 2 μM ATP, 30 minute preincubation, Table 16, read-out: GSK3-B TR-FRET BIOCHEMICAL (TR-FRET), IC50
# [7] = GSK3-A (TR-FRET 1 mM ATP), GMean, IC50, 1 mM ATP, geometric mean
# [8] = GSK3-B (TR-FRET 1 mM ATP), GMean, IC50, 1 mM ATP, geometric mean
# [9] = 1 nM GSK3α, 4 μM ATP, 30 minute preincubation, Table 16, read-out: GSK3-A TR-FRET BIOCHEMICAL (TR-FRET)
# [10] = 1 nM GSK3b, 2 μM ATP, 30 minute preincubation, Table 16, read-out: GSK3-B TR-FRET BIOCHEMICAL (TR-FRET)
# [11] = read-out: GSK3-A (TR-FRET 1 mM ATP), GMean, IC50, 1 mM ATP, geometric mean
# [12] = read-out: GSK3-B (TR-FRET 1 mM ATP), GMean, IC50, 1 mM ATP, geometric mean
# [13] = 1 nM GSK3b, 2 μM ATP, 30 minute preincubation, read-out: GSK3-B TR-FRET BIOCHEMICAL (TR-FRET), IC50
# GSK3α (GST-full length GSK3α), sequence (P49840 whole entry): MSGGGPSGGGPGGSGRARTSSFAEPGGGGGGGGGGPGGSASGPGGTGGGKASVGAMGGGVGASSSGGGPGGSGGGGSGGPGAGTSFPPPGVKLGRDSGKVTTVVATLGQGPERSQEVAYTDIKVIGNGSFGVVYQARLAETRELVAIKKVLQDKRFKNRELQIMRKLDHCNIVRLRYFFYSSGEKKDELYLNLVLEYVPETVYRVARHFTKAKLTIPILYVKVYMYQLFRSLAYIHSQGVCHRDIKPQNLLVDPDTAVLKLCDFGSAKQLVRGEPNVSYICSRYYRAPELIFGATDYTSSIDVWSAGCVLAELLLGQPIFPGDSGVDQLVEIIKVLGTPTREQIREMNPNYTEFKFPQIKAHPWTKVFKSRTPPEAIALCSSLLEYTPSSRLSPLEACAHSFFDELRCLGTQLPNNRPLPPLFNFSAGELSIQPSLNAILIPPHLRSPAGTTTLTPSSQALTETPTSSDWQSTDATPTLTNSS
smiles,measurement,setting,value
CCC1(c2cccc(C(F)(F)F)c2)C2=C(CC(C)CC2=O)Nc2n[nH]cc21 (mixture of isomers) [Compound 801397],IC50,[1]; [3],≤ 100 nM
same,IC50,[2]; [4],100 to 1000 nM
CCC1(c2cccc(Br)c2)C2=C(CC(C)(C)C(F)C2=O)Nc2n[nH]cc21 (mixture of isomers) [Compound 826764],IC50,[1]; [3],≤ 100 nM
same,IC50,[2]; [4],100 to 1000 nM
CCC1(c2cccc(N3CCCC3C)c2)C2=C(CC(C)(C)CC2=O)Nc2n[nH]cc21 (mixture of isomers) [Compound 885188],IC50,[1]; [5],100 to 1000 nM
same,IC50,[2]; [6],100 to 1000 nM
CCC1(c2cccc(N3CCCCC3C)c2)C2=C(CC(C)(C)CC2=O)Nc2n[nH]cc21 (mixture of isomers) [Compound 885217],IC50,[1]; [5],100 to 1000 nM
same,IC50,[2]; [6],100 to 1000 nM
CCC1(c2cccc(-c3ccncc3C)c2)C2=C(CC(C)(COC)NC2=O)Nc2n[nH]cc21 (mixture of isomers) [Compound 948127],IC50,[1]; [3],100 to 1000 nM
same,IC50,[2]; [4],> 5000 nM
"CCC1(c2cccc(C(F)(F)F)c2)C2=C(Nc3n[nH]cc31)C(F)C(C)(C)CC2=O (single isomer, unassigned) [Compound 837683, 4-ethyl-8-fluoro-7,7-dimethyl-4-(3-(trifluoromethyl)phenyl)-2,4,6,7,8,9-hexahydro-5H-pyrazolo[3,4-b]quinolin-5-one]",IC50,[1]; [3],≤ 100 nM
same,IC50,[1]; [7],100 to 1000 nM
same,IC50,[2]; [4],100 to 1000 nM
same,IC50,[2]; [8],> 5000 nM
"CCC1(c2cccc(C(F)(F)F)c2)C2=C(Nc3n[nH]cc31)C(F)C(C)(C)CC2=O (single isomer, unassigned) [Compound 837753, 4-ethyl-8-fluoro-7,7-dimethyl-4-(3-(trifluoromethyl)phenyl)-2,4,6,7,8,9-hexahydro-5H-pyrazolo[3,4-b]quinolin-5-one]",IC50,[1]; [3],100 to 1000 nM
same,IC50,[1]; [7],> 5000 nM
same,IC50,[2]; [4],> 5000 nM
same,IC50,[2]; [8],> 5000 nM
"CCC1(c2cccc(C(F)(F)F)c2)C2=C(Nc3n[nH]cc31)C(F)C(C)(C)CC2=O (single isomer, unassigned) [Compound 837803, 4-ethyl-8-fluoro-7,7-dimethyl-4-(3-(trifluoromethyl)phenyl)-2,4,6,7,8,9-hexahydro-5H-pyrazolo[3,4-b]quinolin-5-one]",IC50,[1]; [3],1000 to 5000 nM
same,IC50,[1]; [7],> 5000 nM
same,IC50,[2]; [4],> 5000 nM
same,IC50,[2]; [8],> 5000 nM
"CCC1(c2cccc(-c3cn(C)nc3C)c2)C2=C(Nc3n[nH]cc31)C(F)C(C)(C)CC2=O (single isomer, unassigned) [Compound 947650, 4-(3-(1,3-dimethyl-1H-pyrazol-4-yl)phenyl)-4-ethyl-8-fluoro-7,7-dimethyl-2,4,6,7,8,9-hexahydro-5H-pyrazolo[3,4-b]quinolin-5-one]",IC50,[1]; [9],≤ 100 nM
same,IC50,[1]; [7],100 to 1000 nM
same,IC50,[2]; [10],≤ 100 nM
same,IC50,[2]; [8],> 5000 nM
"CCC1(c2cccc(-c3cn(C)nc3C)c2)C2=C(Nc3n[nH]cc31)C(F)C(C)(C)CC2=O (single isomer, unassigned) [Compound 947652, 4-(3-(1,3-dimethyl-1H-pyrazol-4-yl)phenyl)-4-ethyl-8-fluoro-7,7-dimethyl-2,4,6,7,8,9-hexahydro-5H-pyrazolo[3,4-b]quinolin-5-one]",IC50,[1]; [9],≤ 100 nM
same,IC50,[1]; [7],100 to 1000 nM
same,IC50,[2]; [10],100 to 1000 nM
same,IC50,[2]; [8],> 5000 nM
"CCC1(c2cccc(-c3cn(C)nc3C)c2)C2=C(Nc3n[nH]cc31)C(F)C(C)(C)CC2=O (single isomer, unassigned) [Compound 947653, 4-(3-(1,3-dimethyl-1H-pyrazol-4-yl)phenyl)-4-ethyl-8-fluoro-7,7-dimethyl-2,4,6,7,8,9-hexahydro-5H-pyrazolo[3,4-b]quinolin-5-one]",IC50,[1]; [9],≤ 100 nM
same,IC50,[2]; [10],100 to 1000 nM
CC1(C)CC(=O)C2=C(C1)Nc1n[nH]cc1[C@]21CO[C@@H](C2CC2)C1 (stereo in doubt) [Compound 913185],IC50,[1]; [9],100 to 1000 nM
same,IC50,[2]; [10],1000 to 5000 nM
CC(C)(C)Cc1[nH]nc2c1C1(CN(C(=O)OCc3ccccc3)C1)C1=C(CC(C)(C)CC1=O)N2 [Compound 90330],IC50,[1]; [11],> 5000 nM
same,IC50,[2]; [12],> 5000 nM
CC(C)(C)Cc1[nH]nc2c1C1(CCN(c3ccccc3)CC1)C1=C(CC(C)(C)CC1=O)N2 [Compound 92315],IC50,[1]; [11],> 5000 nM
same,IC50,[2]; [12],> 5000 nM
CC(C)(C)Cc1[nH]nc2c1[C@@](C)(c1cccc(S(=O)(=O)CC3CC3)c1)C1=C(CC(C)(C)NC1=O)N2 [Compound 108006],IC50,[1]; [11],> 5000 nM
same,IC50,[2]; [12],> 5000 nM
CC(C)(C)Cc1[nH]nc2c1C(C)(c1cccc(S(=O)(=O)N3CCCC3)c1)C1=C(CC(C)(C)NC1=O)N2 (stereo not drawn) [Compound 108791],IC50,[1]; [11],1000 to 5000 nM
same,IC50,[2]; [12],100 to 1000 nM
CC(C)(C)Cc1[nH]nc2c1[C@@](C)(c1cccc(S(=O)(=O)N3CCCC3)c1)C1=C(CC(C)(C)NC1=O)N2 [Compound 108794],IC50,[1]; [11],> 5000 nM
same,IC50,[2]; [12],> 5000 nM
COc1cncc(F)c1-c1cccc([C@@]2(C)C3=C(CC(C)(C)CC3=O)Nc3n[nH]c(CC(C)(C)C)c32)c1 [Compound 108956],IC50,[1]; [11],> 5000 nM
same,IC50,[2]; [12],1000 to 5000 nM
CC(C)(C)Cc1[nH]nc2c1C(C)(c1cc(S(C)(=O)=O)ccc1F)C1=C(CC(C)(C)CC1=O)N2 (stereo not drawn) [Compound 125977],IC50,[2]; [12],> 5000 nM
CN(C)S(=O)(=O)c1cccc(C2(C)C3=C(CC(C)(C)CC3=O)Nc3n[nH]c(CC(C)(C)C)c32)c1 (stereo not drawn) [Compound 126013],IC50,[2]; [12],> 5000 nM
C[S+]([O-])c1cccc(C2(C)C3=C(CC(C)(C)CC3=O)Nc3n[nH]c(CC(C)(C)C)c32)c1 (stereo not drawn) [Compound 126193],IC50,[2]; [12],> 5000 nM
Cn1cc(-c2cccc(C3(C)C4=C(CC(C)(C)CC4=O)Nc4n[nH]c(CC(C)(C)C)c43)c2)cn1 (stereo not drawn) [Compound 126394],IC50,[1]; [11],> 5000 nM
Cc1ccc(S(C)(=O)=O)cc1C1(C)C2=C(CC(C)(C)CC2=O)Nc2n[nH]c(CC(C)(C)C)c21 (stereo not drawn) [Compound 126398],IC50,[2]; [12],> 5000 nM
CC(C)(C)Cc1[nH]nc2c1C(C)(c1cccc(N3CCOCC3)c1)C1=C(CC(C)(C)CC1=O)N2 (stereo not drawn) [Compound 126399],IC50,[2]; [12],> 5000 nM
CCC1(c2cccc(C3CCOCC3)c2)C2=C(CC(C)(C)CC2=O)Nc2n[nH]cc21 (stereo not drawn) [Compound 791273],IC50,[2]; [4],100 to 1000 nM
CCC1(c2cccc(-c3ccncn3)c2)C2=C(CC(C)(C)CC2=O)Nc2n[nH]cc21 (stereo not drawn) [Compound 810488],IC50,[2]; [4],100 to 1000 nM
CCC1(c2cccc(C(F)(F)F)c2)C2=C(CC(C)NC2=O)Nc2n[nH]cc21 (stereo not drawn) [Compound 912096],IC50,[2]; [13],100 to 1000 nM
CCC1(c2cccc(C(F)(F)F)c2)C2=C(Nc3n[nH]cc31)C(C)N(C)C2=O (stereo not drawn) [Compound 913454],IC50,[2]; [10],100 to 1000 nM
CC[C@@]1(c2cccc(C(F)(F)F)c2)C2=C(Nc3n[nH]cc31)[C@H](C)N(C)C2=O [Compound 913473],IC50,[2]; [10],100 to 1000 nM
CCC1(c2cccc(-c3cnn(C)c3)c2)C2=C(CC(C)(C)NC2=O)Nc2n[nH]c(C)c21 (stereo not drawn) [Compound 944027],IC50,[2]; [13],100 to 1000 nM
CCC1(c2cccc(-c3ncnn3C)c2)C2=C(CC(C)(C)CC2=O)Nc2n[nH]cc21 (stereo not drawn) [Compound 945472],IC50,[2]; [10],100 to 1000 nM
CCC1(c2cccc(N(C)c3cc(C)ccn3)c2)C2=C(CC(C)(C)CC2=O)Nc2n[nH]cc21 (stereo not drawn) [Compound 945609],IC50,[2]; [10],100 to 1000 nM
CCC1(c2cccc(-c3c(C)nnn3C)c2)C2=C(CC(C)(C)CC2=O)Nc2n[nH]cc21 (stereo not drawn) [Compound 946099],IC50,[2]; [12],100 to 1000 nM
CCC1(c2cccc(N3CCCCC3)c2)C2=C(CC(C)(C)NC2=O)Nc2n[nH]c(C(F)(F)F)c21 (stereo not drawn) [Compound 947861],IC50,[2]; [12],100 to 1000 nM
CCC1(c2cccc(C(F)(F)F)c2)C2=C(CCN(c3cccc(C)c3)C2=O)Nc2n[nH]cc21 (stereo not drawn) [Compound 948052],IC50,[2]; [4],100 to 1000 nM
